Earlier results on four molecules are cited in US20070197640A1, “Certain chemical entities, compositions, and methods” (Cytokinetics, Inc., priority 2005, published 2007).

Broadly, the GI50 is the concentration that inhibits growth by half.

In the data set the test system is A549 cells. The following applies: data provided by National Cancer Institute, Developmental Therapeutic Program.
As for `O=c1[nH]cc(F)c(=O)[nH]1` [5-fluorouracil], the GI50 was 1000 nM.

As for `COc1cccc2c1C(=O)c1c(O)c3c(c(O)c1C2=O)C[C@@](O)(C(=O)CO)C[C@@H]3O[C@H]1C[C@H](N)[C@H](O)[C@H](C)O1` [doxorubicin], the GI50 was 63 nM.

On to `NC(=O)NO` [hydroxyurea], for which the GI50 was 500000 nM.

As to `CC(=O)O[C@H]1C(=O)[C@@]2(C)[C@H]([C@H](OC(=O)c3ccccc3)[C@]3(O)C[C@H](OC(=O)[C@H](O)[C@@H](NC(=O)c4ccccc4)c4ccccc4)C(C)=C1C3(C)C)[C@]1(OC(C)=O)CO[C@@H]1C[C@@H]2O` [paclitaxel], the GI50 is 4 nM.
